Converted amounts (≈) assume the structure as drawn.
Key:
[1] = system: Escherichia coli; experiment: Antimicrobial activity Escherichia coli DH5alpha expressing metallo-beta-lactamase VIM-11 by agar macrodilution method; format: functional
[2] = system: Escherichia coli; experiment: Antimicrobial activity Escherichia coli DH5alpha expressing beta lactamase VIM-2 by agar macrodilution method; format: functional
[3] = system: Pseudomonas aeruginosa; experiment: Ratio of Kcat to Km for Pseudomonas aeruginosa COL-1 metallo-beta lactamase VIM-2 over Kcat to Km for Pseudomonas aeruginosa M5109 metallo-beta-lactamase VIM-11
[4] = system: Escherichia coli; experiment: Activity at Escherichia coli DH5alpha metallo-beta-lactamase VIM-11 assessed as compound hydrolysis per mg of total periplasmic protein by spectrometry
[5] = biological target: Metallo-beta-lactamase (Escherichia coli) (UniProt Q5U7L7); experiment: Activity at Escherichia coli DH5alpha metallo-beta-lactamase VIM-2 assessed as compound hydrolysis per mg of total periplasmic protein by spectrometry
[6] = system: CC(=O)OCC1=C(C(=O)O)N2C(=O)[C@@H](NC(=O)Cc3cccs3)[C@H]2SC1; experiment: (§1) Activity at Pseudomonas aeruginosa COL-1 metallo-beta lactamase VIM-2 by spectrometry
[7] = system: CC(C)(O/N=C(\C(=O)N[C@@H]1C(=O)N2C(C(=O)[O-])=C(C[n+]3ccccc3)CS[C@H]12)c1csc(N)n1)C(=O)O; experiment: as §1
[8] = system: CC1(C)S[C@@H]2[C@H](NC(=O)[C@H](N)c3ccccc3)C(=O)N2[C@H]1C(=O)O; experiment: as §1
[9] = system: CO/N=C(\C(=O)N[C@@H]1C(=O)N2C(C(=O)O)=C(COC(C)=O)CS[C@H]12)c1csc(N)n1; experiment: as §1
[10] = system: CO/N=C(\C(=O)N[C@@H]1C(=O)N2C(C(=O)O)=C(COC(N)=O)CS[C@H]12)c1ccco1; experiment: as §1
[11] = system: CO/N=C(\C(=O)N[C@@H]1C(=O)N2C(C(=O)[O-])=C(C[n+]3cccc4c3CCC4)CS[C@H]12)c1csc(N)n1; experiment: as §1
[12] = system: CO[C@@]1(NC(=O)Cc2cccs2)C(=O)N2C(C(=O)O)=C(COC(N)=O)CS[C@@H]21; experiment: as §1
[13] = system: C[C@@H](O)[C@H]1C(=O)N2C(C(=O)O)=C(S[C@@H]3CN[C@H](C(=O)N(C)C)C3)[C@H](C)[C@H]12; experiment: as §1
[14] = system: O=C(Cc1cccs1)N[C@@H]1C(=O)N2C(C(=O)O)=C(/C=C/c3ccc([N+](=O)[O-])cc3[N+](=O)[O-])CS[C@H]12; experiment: as §1
[15] = system: CC(=O)OCC1=C(C(=O)O)N2C(=O)[C@@H](NC(=O)Cc3cccs3)[C@H]2SC1; experiment: (§2) Ratio of Kcat to Km for Pseudomonas aeruginosa COL-1 metallo-beta lactamase VIM-2
[16] = system: CC(C)(O/N=C(\C(=O)N[C@@H]1C(=O)N2C(C(=O)[O-])=C(C[n+]3ccccc3)CS[C@H]12)c1csc(N)n1)C(=O)O; experiment: as §2
[17] = system: CC1(C)S[C@@H]2[C@H](NC(=O)[C@H](N)c3ccccc3)C(=O)N2[C@H]1C(=O)O; experiment: as §2
[18] = system: CO/N=C(\C(=O)N[C@@H]1C(=O)N2C(C(=O)O)=C(COC(C)=O)CS[C@H]12)c1csc(N)n1; experiment: as §2
[19] = system: CO/N=C(\C(=O)N[C@@H]1C(=O)N2C(C(=O)O)=C(COC(N)=O)CS[C@H]12)c1ccco1; experiment: as §2
[20] = system: CO[C@@]1(NC(=O)Cc2cccs2)C(=O)N2C(C(=O)O)=C(COC(N)=O)CS[C@@H]21; experiment: as §2
[21] = system: C[C@@H](O)[C@H]1C(=O)N2C(C(=O)O)=C(S[C@@H]3CN[C@H](C(=O)N(C)C)C3)[C@H](C)[C@H]12; experiment: as §2
[22] = system: O=C(Cc1cccs1)N[C@@H]1C(=O)N2C(C(=O)O)=C(/C=C/c3ccc([N+](=O)[O-])cc3[N+](=O)[O-])CS[C@H]12; experiment: as §2
[23] = system: Escherichia coli; experiment: Antimicrobial activity Escherichia coli DH5alpha harboring bacteriophage T4 plasmid alpha omega by agar macrodilution method; format: functional

C[C@@H](O)[C@H]1C(=O)N2C(C(=O)O)=C(SCCNC=N)C[C@H]12 [IMIPENEM ANHYDROUS]
MIC [1]: 0.5 µg/mL (≈ 1.67 µM)
MIC [2]: 1 µg/mL (≈ 3.34 µM)
kcat/Km ratio [3]: 0.67
Activity [4]: 1.3 µmol
Activity [5]: 27 µmol

CO/N=C(\C(=O)N[C@@H]1C(=O)N2C(C(=O)[O-])=C(C[N+]3(C)CCCC3)CS[C@H]12)c1csc(N)n1
MIC [1]: 0.5 µg/mL (≈ 1.04 µM)
MIC [2]: 0.5 µg/mL (≈ 1.04 µM)
kcat/Km ratio [3]: 2.9

Metallo-beta-lactamase VIM-2 (Pseudomonas aeruginosa) (from UniProt D1MEN9)
Km [6]: 6.2 µM
kcat [6]: 96.4 s⁻¹
Km [7]: 88.2 µM
Km [8]: 136 µM
Km [9]: 13.4 µM
kcat [9]: 61 s⁻¹
Km [10]: 5.5 µM
kcat [10]: 30.5 s⁻¹
Km [11]: 171 µM
kcat [11]: 48.1 s⁻¹
kcat [12]: 10 s⁻¹
Km [13]: 24.5 µM
kcat [13]: 3.5 s⁻¹
Km [14]: 13.8 µM
kcat [14]: 206 s⁻¹
kcat/Km [15]: 1.6 ×10⁶ /M/s
kcat/Km [16]: 3.2 ×10⁶ /M/s
kcat/Km [17]: 2.2 ×10⁶ /M/s
kcat/Km [18]: 4.6 ×10⁶ /M/s
kcat/Km [19]: 5.5 ×10⁶ /M/s
kcat/Km [20]: 1 ×10⁶ /M/s
kcat/Km [21]: 1.4 ×10⁶ /M/s
kcat/Km [22]: 1.5 ×10⁶ /M/s

C[C@@H](O)[C@H]1C(=O)N2C(C(=O)O)=C(S[C@@H]3CN[C@H](C(=O)N(C)C)C3)[C@H](C)[C@H]12 [MEROPENEM]
MIC [23]: 0.03 µg/mL (≈ 0.0782 µM)
MIC [1]: 0.06 µg/mL (≈ 0.156 µM)
MIC [2]: 0.125 µg/mL (≈ 0.326 µM)
kcat/Km ratio [3]: 1

CO/N=C(\C(=O)N[C@@H]1C(=O)N2C(C(=O)O)=C(COC(N)=O)CS[C@H]12)c1ccco1 [CEFUROXIME]
MIC [23]: 4 µg/mL (≈ 9.43 µM)
MIC [1]: 64 µg/mL (≈ 151 µM)
MIC [2]: 128 µg/mL (≈ 302 µM)
kcat/Km ratio [3]: 0.89

C[C@H]1[C@H](NC(=O)/C(=N\OC(C)(C)C(=O)O)c2csc(N)n2)C(=O)N1S(=O)(=O)O [AZTREONAM]
MIC [1]: 0.5 µg/mL (≈ 1.15 µM)
MIC [2]: 0.5 µg/mL (≈ 1.15 µM)

CC(C)(O/N=C(\C(=O)N[C@@H]1C(=O)N2C(C(=O)[O-])=C(C[n+]3ccccc3)CS[C@H]12)c1csc(N)n1)C(=O)O [CEFTAZIDIME]
MIC [23]: 0.125 µg/mL (≈ 0.229 µM)
MIC [1]: 8 µg/mL (≈ 14.6 µM)
MIC [2]: 8 µg/mL (≈ 14.6 µM)
kcat/Km ratio [3]: 4.06
Activity [4]: 0.9 µmol
Activity [5]: 5.5 µmol

Source: ChEMBL document CHEMBL1255351, “Biochemical characterization of metallo-beta-lactamase VIM-11 from a Pseudomonas aeruginosa clinical strain” (2008)
